Tests used:
[1] = tested on: Botryotinia fuckeliana (Botrytis cinerea); test: Botryotinia fuckeliana (Botrytis cinerea) / liquid culture (gray mould); format: cell-based; settings: growth inhibition photometrically 3-4 days after application, vs untreated control
Procedure: Botryotinia fuckeliana (Botrytis cinerea)/Liquid Culture (Gray Mould)
(§1) Conidia of the fungus from cryogenic storage are directly mixed into nutrient broth (Vogels broth). After placing a (DMSO) solution of test compound into a microtiter plate (96-well format), the nutrient broth containing the fungal spores is added. The test plates are incubated at 24° C. and the inhibition of growth is determined photometrically 3-4 days after application.

Fusarium culmorum [2] = test: microbe, parasite or virus in culture; format: cell-based; settings: read-out: control of Fusarium culmorum
[3] = tested on: Glomerella lagenarium (Colletotrichum lagenarium); test: Glomerella lagenarium (Colletotrichum lagenarium) / liquid culture (anthracnose); format: cell-based; settings: Colletotrichum orbiculare, growth inhibition photometrically 3-4 days after application, vs untreated control
Procedure: as §1, with “(PDB potato dextrose” for “(Vogels”, “measured” for “determined”

[4] = tested on: Monographella nivalis (Microdochium nivale); test: Monographella nivalis (Microdochium nivale) / liquid culture (foot rot cereals); format: cell-based; settings: growth inhibition photometrically 4-5 days after application, vs untreated control
Procedure: Monographella nivalis (Microdochium nivale)/Liquid Culture (Foot Rot Cereals)
as §1, with “(PDB potato dextrose” for “(Vogels”, “4-5” for “3-4”

[5] = tested on: Magnaporthe grisea (Pyricularia oryzae); test: microbe, parasite or virus in culture; format: cell-based; settings: read-out: control of Magnaporthe grisea
Sclerotinia sclerotiorum = Sclerotinia sclerotiorum / liquid culture (cottony rot); format: cell-based; settings: growth inhibition photometrically 3-4 days after application, vs untreated control
Procedure: Sclerotinia sclerotiorum/Liquid Culture (Cottony Rot)
as §1, with “Mycelia fragments of a newly grown liquid culture” for “Conidia”, “fungus” for “fungus from cryogenic storage”, “format)” for “format),”, “material” for “spores”

Fusarium culmorum [6] = test: whole plant or invertebrate; format: in vivo, Fusarium culmorum on wheat spikelets cv. Monsun; settings: in Triticum aestivum, read-out: control of Fusarium culmorum
[7] = tested on: Magnaporthe grisea (Pyricularia oryzae); test: whole plant or invertebrate; format: in vivo, Magnaporthe grisea on rice leaf segments cv. Ballila; settings: foliar, read-out: control of Magnaporthe grisea
[8] = tested on: Mycosphaerella graminicola (Septoria tritici); test: Mycosphaerella graminicola (Septoria tritici) / liquid culture (Septoria blotch); format: cell-based; settings: Zymoseptoria tritici, growth inhibition photometrically 4-5 days after application, vs untreated control
Procedure: Mycosphaerella graminicola (Septoria tritici)/Liquid Culture (Septoria Blotch)
as §1, with “(PDB potato dextrose” for “(Vogels”, “4-5” for “3-4”

SMILES | inhibition of growth at 200 ppm [1] [%] | inhibition of growth at 200 ppm (Fusarium culmorum [2]) [%] | inhibition of growth at 200 ppm [3] [%] | inhibition of growth at 200 ppm [4] [%] | inhibition of growth at 200 ppm [5] [%] | inhibition of growth at 20 ppm (Sclerotinia sclerotiorum) [%] | pest or weed control at 200 ppm (Fusarium culmorum [6]) [%] | pest or weed control at 200 ppm [7] [%] | melting point [°C] | inhibition of growth at 200 ppm [8] [%]
C=C(Cl)C[C@H](Cc1ccccc1)C(=O)Nc1cnc2c(F)cccc2c1C [Compound F-28, (2S)-2-benzyl-4-chloro-N-(8-fluoro-4-methyl-3-quinolyl)pent-4-enamide] | ≥ 80 | ≥ 80 | ≥ 80 | ≥ 80 | ≥ 80 | ≥ 80 | – | – | – | –
C=C(Cl)C[C@](C)(Cc1ccccc1)C(=O)Nc1cnc2c(F)cccc2c1C [Compound F-41, (2S)-2-benzyl-4-chloro-N-(8-fluoro-4-methyl-3-quinolyl)-2-methyl-pent-4-enamide] | ≥ 80 | – | ≥ 80 | ≥ 80 | – | ≥ 80 | ≥ 80 | ≥ 80 | – | –
Cc1nc2c(F)cccc2cc1NC(=O)[C@@H](Cc1ccccc1)CC(C)(C)C [Compound F-34, (2R)-2-benzyl-N-(8-fluoro-2-methyl-3-quinolyl)-4,4-dimethyl-pentanamide] | ≥ 80 | ≥ 80 | ≥ 80 | ≥ 80 | ≥ 80 | ≥ 80 | ≥ 80 | ≥ 80 | – | –
C=C(Cl)C[C@](C)(Cc1ccccc1)C(=O)Nc1cc2cccc(F)c2nc1C [Compound F-44, (2S)-2-benzyl-4-chloro-N-(8-fluoro-2-methyl-3-quinolyl)-2-methyl-pent-4-enamide] | ≥ 80 | ≥ 80 | ≥ 80 | ≥ 80 | ≥ 80 | ≥ 80 | ≥ 80 | ≥ 80 | – | –
Cc1nc2c(F)cccc2cc1NC(=O)C(Cc1ccccc1)CC1(C)CC1 (stereo not shown) [Compound E-89, 2-benzyl-N-(8-fluoro-2-methyl-3-quinolyl)-3-(1-methylcyclopropyl)propanamide] | ≥ 80 | ≥ 80 | ≥ 80 | ≥ 80 | ≥ 80 | ≥ 80 | ≥ 80 | ≥ 80 | 162 to 163 | –
Cc1nc2c(F)cccc2cc1NC(=O)C(Cc1ccccc1)CC(C)(C)C (stereo not shown) [Compound E-97, 2-benzyl-N-(8-fluoro-2-methyl-3-quinolyl)-4,4-dimethyl-pentanamide] | ≥ 80 | ≥ 80 | ≥ 80 | ≥ 80 | ≥ 80 | – | ≥ 80 | ≥ 80 | – | –
Cc1nc2c(F)cccc2cc1NC(=O)[C@](C)(Cc1cccc(F)c1)CC(C)C [Compound F-29, (2S)-N-(8-fluoro-2-methyl-3-quinolyl)-2-[(3-fluorophenyl)methyl]-2,4-dimethyl-pentanamide] | ≥ 80 | – | ≥ 80 | ≥ 80 | ≥ 80 | ≥ 80 | – | ≥ 80 | – | –
Cc1nc2c(F)cccc2cc1NC(=O)[C@@H](Cc1ccccc1)CC1(C)CC1 [Compound F-38, (2R)-2-benzyl-N-(8-fluoro-2-methyl-3-quinolyl)-3-(1-methylcyclopropyl)propanamide] | ≥ 80 | ≥ 80 | ≥ 80 | ≥ 80 | ≥ 80 | ≥ 80 | ≥ 80 | – | – | –
Cc1nc2c(F)cccc2cc1NC(=O)[C@@](C)(Cc1cccc(F)c1)CC(C)C [Compound F-30, (2R)-N-(8-fluoro-2-methyl-3-quinolyl)-2-[(3-fluorophenyl)methyl]-2,4-dimethyl-pentanamide] | ≥ 80 | – | ≥ 80 | ≥ 80 | ≥ 80 | ≥ 80 | – | ≥ 80 | – | –
CC1(CC(Cc2ccccc2)C(=O)Nc2cnc3c(F)cccc3c2)CC1 (stereo not shown) [Compound E-91, 2-benzyl-N-(8-fluoro-3-quinolyl)-3-(1-methylcyclopropyl)propanamide] | ≥ 80 | ≥ 80 | ≥ 80 | ≥ 80 | ≥ 80 | ≥ 80 | ≥ 80 | ≥ 80 | 135 to 136 | –
C=C(Cl)C[C@@](C)(Cc1ccccc1)C(=O)Nc1cnc2c(F)cccc2c1C [Compound F-42, (2R)-2-benzyl-4-chloro-N-(8-fluoro-4-methyl-3-quinolyl)-2-methyl-pent-4-enamide] | ≥ 80 | ≥ 80 | ≥ 80 | ≥ 80 | ≥ 80 | ≥ 80 | ≥ 80 | ≥ 80 | – | –
CC(C)CC(F)(Cc1ccccc1)C(=O)Nc1cnc2c(F)cccc2c1 (stereo not shown) [Compound E-1] | – | – | – | – | ≥ 80 | – | ≥ 80 | ≥ 80 | – | ≥ 80
Cc1c(NC(=O)[C@H](Cc2ccccc2)CC(C)(C)C)cnc2c(F)cccc12 [Compound F-35, (2S)-2-benzyl-N-(8-fluoro-4-methyl-3-quinolyl)-4,4-dimethyl-pentanamide] | ≥ 80 | ≥ 80 | ≥ 80 | ≥ 80 | ≥ 80 | – | ≥ 80 | ≥ 80 | – | –
C=C(Cl)CC(Cc1ccccc1)C(=O)Nc1cc2cccc(F)c2nc1C (stereo not shown) [Compound E-4, 2-benzyl-4-chloro-N-(8-fluoro-2-methyl-3-quinolyl)pent-4-enamide] | – | – | – | – | ≥ 80 | – | – | – | 96 to 99 | ≥ 80
Cc1c(NC(=O)C(Cc2ccccc2)CC2(C)CC2)cnc2c(F)cccc12 (stereo not shown) [Compound E-90, 2-benzyl-N-(8-fluoro-4-methyl-3-quinolyl)-3-(1-methylcyclopropyl)propanamide] | ≥ 80 | ≥ 80 | ≥ 80 | ≥ 80 | ≥ 80 | ≥ 80 | ≥ 80 | ≥ 80 | 144 to 146 | –
C=C(C)CC(Cc1ccccc1)C(=O)Nc1cc2cccc(F)c2nc1C (stereo not shown) [Compound E-92, 2-benzyl-N-(8-fluoro-2-methyl-3-quinolyl)-4-methyl-pent-4-enamide] | – | – | – | – | ≥ 80 | – | ≥ 80 | – | 97 to 99 | ≥ 80
Cc1c(NC(=O)C(Cc2ccccc2)CC(C)(C)C)cnc2c(F)cccc12 (stereo not shown) [Compound E-96, 2-benzyl-N-(8-fluoro-4-methyl-3-quinolyl)-4,4-dimethyl-pentanamide] | ≥ 80 | ≥ 80 | ≥ 80 | ≥ 80 | ≥ 80 | ≥ 80 | ≥ 80 | ≥ 80 | 135 to 136 | –
Cc1c(NC(=O)[C@@H](Cc2ccccc2)CC(C)(C)C)cnc2c(F)cccc12 [Compound F-36, (2R)-2-benzyl-N-(8-fluoro-4-methyl-3-quinolyl)-4,4-dimethyl-pentanamide] | ≥ 80 | ≥ 80 | ≥ 80 | ≥ 80 | ≥ 80 | ≥ 80 | ≥ 80 | ≥ 80 | – | –

Source: patent US20220030867A1 (priority 2018, published 2022)
